Results: PubChem BioAssay (NCI)
Several values for one entry are separate records, joined by “and”; a condition that tells them apart may be missing. Identical values can stand only once.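 Grown in 96-well plates, cells were treated for 48 hours with each compound at five concentrations. Insufficient inhibition: endpoint recorded as highest concentration tested. GI50 = concentration required for 50% inhibition of growth. TGI: concentration producing complete growth inhibition.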

Legend:
Experiment in all cases: inhibition of tumour cell growth, NCI panel, 48 h
DU-145 prostate = test system: DU-145 prostate
HCT-15 colon = test system: HCT-15 colon
HL-60(TB) leukemia = test system: HL-60(TB) leukemia
MCF7 breast = test system: MCF7 breast
NCI-H226 lung = test system: NCI-H226 lung
OVCAR-3 ovarian = test system: OVCAR-3 ovarian
SK-OV-3 ovarian = test system: SK-OV-3 ovarian
SN12C renal = test system: SN12C renal
SNB-75 CNS = test system: SNB-75 CNS
TK-10 renal = test system: TK-10 renal

SMILES	TGI (DU-145 prostate)	TGI (HCT-15 colon)	TGI (HL-60(TB) leukemia) [µM]	TGI (MCF7 breast)	TGI (NCI-H226 lung)	TGI (OVCAR-3 ovarian)	TGI (SK-OV-3 ovarian)	TGI (SN12C renal)	TGI (SNB-75 CNS)	TGI (TK-10 renal)	GI50 (DU-145 prostate)	GI50 (HCT-15 colon)	GI50 (HL-60(TB) leukemia) [µM]	GI50 (MCF7 breast) [µM]	GI50 (NCI-H226 lung)	GI50 (OVCAR-3 ovarian)	GI50 (SK-OV-3 ovarian)	GI50 (SN12C renal)	GI50 (SNB-75 CNS)	GI50 (TK-10 renal)
O=c1[nH]cc(/C=N\Nc2ccccc2)c(=O)[nH]1	> 100 µM	> 100 µM	> 100	> 100 µM	> 100 µM	> 100 µM	> 100 µM	> 100 µM	> 100 µM	> 100 µM	–	–	–	–	–	–	–	–	–	–
C=C(C)[C@@H]1CC[C@]2(C(N)=O)CC[C@]3(C)[C@H](CC[C@@H]4[C@@]5(C)CC[C@H](O)C(C)(C)[C@@H]5CC[C@]43C)[C@@H]12	10.1 µM	12.3 µM	17.5	11.2 µM	17.8 µM	4.18 µM	29.8 µM	10.6 µM	12.1 µM	7.59 µM	3.21 µM	3.28 µM	3.59	2.91	4.1 µM	2.07 µM	8.18 µM	3 µM	2.74 µM	2.79 µM
C[C@@H](N)C1CCC(C(=O)Nc2ccncc2)CC1 (stereo partly specified)	> 100 µM	> 100 µM	> 100	> 100 µM	> 100 µM	> 100 µM	> 100 µM	> 100 µM	> 100 µM	> 100 µM	> 100 µM	> 100 µM	> 100	> 100	> 100 µM	> 100 µM	> 100 µM	> 100 µM	5.58 µM	8.7 µM
Cc1ncc(C(=O)Nc2ccc(CN3CCN(C)CC3)c(C(F)(F)F)c2)cc1C#Cc1cnc(N)c2cnccc12	6.91 µM	4.41 µM	1.03	3.69 µM	3.09 µM	5.98 µM	0.763 µM	11.5 µM	0.616 µM	1.93 µM	0.0636 µM	0.389 µM	0.0383	1.18	0.175 µM	0.181 µM	0.162 µM	0.037 µM	0.0899 µM	0.132 µM
COc1cc2c3c(c4ccc(OC)c(OC)c4c2cc1OC)CN1CCC[C@@H]1C3	2.9 µM	11.4 µM	0.577	> 20.3 µM	0.263 µM	16.6 µM	2.84 µM	18 µM	0.0947 µM	3.88 µM	–	–	–	–	–	–	–	–	–	–
Cc1cccc(-c2nn3c(c2-c2ccnc4ccc(C(N)=O)cc24)CCC3)n1	> 100 µM	> 100 µM	> 100	> 100 µM	> 100 µM	> 100 µM	> 100 µM	> 100 µM	> 100 µM	> 100 µM	> 100 µM	> 100 µM	> 100	> 100	> 100 µM	> 100 µM	> 100 µM	> 100 µM	> 100 µM	> 100 µM
CC1=CC(=O)CC(C)(C)C1(O)/C=C/C(C)=C/C(=O)O (stereo unspecified)	> 100 µM	> 100 µM	> 100	> 100 µM	> 100 µM	> 100 µM	> 100 µM	> 100 µM	> 100 µM	> 100 µM	–	–	–	–	–	–	–	–	–	–
CCCOc1ccc(-c2nc(-c3ccc(N=Cc4ccc(N(CCOS(C)(=O)=O)CCOS(C)(=O)=O)cc4C)cc3)cs2)cc1	18.1 µM	> 72.2 µM	54	> 100 µM	84.5 µM	55.4 µM	43.2 µM	> 92.6 µM	18 µM	41.1 µM	–	–	–	–	–	–	–	–	–	–
COc1c2ccoc2cc2oc(=O)ccc12	> 100 µM	> 100 µM	> 100	> 100 µM	> 100 µM	> 100 µM	–	> 100 µM	> 100 µM	> 100 µM	–	–	–	–	–	–	–	–	–	–
Fc1ccc(-c2nn3c(CNc4ccccc4)nnc3s2)cc1	> 100 µM	> 100 µM	> 100	> 100 µM	> 100 µM	49.1 µM	–	90.8 µM	> 100 µM	> 100 µM	56.6 µM	45 µM	> 100	60.2	45.5 µM	12.2 µM	–	22.7 µM	52.2 µM	30.2 µM
COC(=O)[C@H]1[C@@H](O)[C@@]2(O)c3c(OC)cc(O[C@@H]4O[C@@H]([C@H](O)CO)CO[C@H]4OC)cc3O[C@@]2(c2ccc(OC)cc2)[C@@H]1c1ccccc1	0.046 µM	> 1 µM	0.0185	0.033 µM	0.078 µM	0.035 µM	0.0325 µM	0.0501 µM	0.0321 µM	0.108 µM	0.00416 µM	0.233 µM	0.00327	0.00312	0.00813 µM	0.00378 µM	0.00296 µM	0.00359 µM	0.004 µM	0.0295 µM
O=C(c1ccc(OCCN2CCCCC2)cc1)c1c(-c2ccc(O)cc2)sc2cc(O)ccc12	23.9 µM and 30.2 µM	20.8 µM and 13.2 µM	12.7	15.6 µM and 14 µM	29.6 µM and 34.6 µM	21.7 µM and 31.5 µM	23.3 µM and 30.4 µM	29.7 µM and 29.8 µM	20.6 µM and 23.6 µM	31.8 µM and 33.3 µM	11.7 µM and 14.9 µM	5.51 µM and 2.67 µM	2.02	1.48	15 µM and 17 µM	10 µM and 14 µM	11.3 µM and 14.2 µM	13.5 µM and 14.5 µM	7.55 µM and 8.56 µM	16.7 µM and 16.3 µM
O=C1/C=C/[C@@H](O)[C@@H]2C[C@@H](O)C[C@H]2/C=C/CCC[C@H](CCc2ccc(C(F)(F)F)cc2)O1	> 100 µM	2.36 µM	2.74	0.457 µM	0.513 µM	0.69 µM	30.2 µM	> 36.5 µM	32.5 µM	5.47 µM	0.479 µM	0.34 µM	0.346	0.197	0.0539 µM	0.264 µM	0.279 µM	0.329 µM	0.0544 µM	0.449 µM
CC(C)CC1C(=O)N2CCC[C@H]2C2(O)O[C@](NC(=O)C3C=C4c5cccc6[nH]c(Br)c(c56)C[C@H]4N(C)C3)(C(C)C)C(=O)N12 (stereo partly specified)	> 100 µM	> 100 µM	29.3	> 100 µM	> 100 µM	> 100 µM	> 100 µM	> 100 µM	> 100 µM	> 100 µM	–	7.05 µM	3.8	4.92	11.3 µM	6.7 µM	9.66 µM	10.2 µM	5.55 µM	5.06 µM
